Source: the supplement of paper PMC4862054

Tests used:
Experiment in all cases: normalised viability (% of control), CellTiter-Blue; higher = more viable cells (about 100 = DMSO control)
Settings in all cases: incubation time: 72 h
HDQ-P1 [1] = tested on: HDQ-P1
Procedure: (§1)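 DSRT, CellTiter-Blue viability, 72 h incubation. Signal is normalised to DMSO and benzethonium chloride controls. Value is the normalised response at dose 8.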

CAL-85-1 [2] = tested on: CAL-85-1
Procedure: as §1

CAL-148 [3] = tested on: CAL-148
Procedure: as §1

DU-4475 [4] = tested on: DU-4475
Procedure: as §1

CAL-51 [5] = tested on: CAL-51
Procedure: as §1

MDA-MB-453 [6] = tested on: MDA-MB-453
Procedure: as §1

HDQ-P1 [7] = tested on: HDQ-P1; remark: listed apart in the source
Procedure: (§2)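 DSRT, CellTiter-Blue viability, 72 h incubation. Signal is normalised to DMSO and benzethonium chloride controls. Value is the normalised response at dose 7.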

CAL-85-1 [8] = tested on: CAL-85-1; remark: listed apart in the source
Procedure: as §2

CAL-148 [9] = tested on: CAL-148; remark: listed apart in the source
Procedure: as §2

DU-4475 [10] = tested on: DU-4475; remark: listed apart in the source
Procedure: as §2

CAL-51 [11] = tested on: CAL-51; remark: listed apart in the source
Procedure: as §2

MDA-MB-453 [12] = tested on: MDA-MB-453; remark: listed apart in the source
Procedure: as §2

HDQ-P1 [13] = tested on: HDQ-P1; remark: listed apart in the source
Procedure: (§3)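 DSRT, CellTiter-Blue viability, 72 h incubation. Signal is normalised to DMSO and benzethonium chloride controls. Value is the normalised response at dose 6.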

CAL-85-1 [14] = tested on: CAL-85-1; remark: listed apart in the source
Procedure: as §3

CAL-148 [15] = tested on: CAL-148; remark: listed apart in the source
Procedure: as §3

DU-4475 [16] = tested on: DU-4475; remark: listed apart in the source
Procedure: as §3

CAL-51 [17] = tested on: CAL-51; remark: listed apart in the source
Procedure: as §3

MDA-MB-453 [18] = tested on: MDA-MB-453; remark: listed apart in the source
Procedure: as §3

Row | SMILES | normalised viability (HDQ-P1 [13]) | normalised viability (CAL-85-1 [14]) | normalised viability (CAL-148 [15]) | normalised viability (DU-4475 [16]) | normalised viability (CAL-51 [17]) | normalised viability (MDA-MB-453 [18]) | other results
1 | Cc1ccc(C(=O)Nc2ccc(CN3CCN(C)CC3)c(C(F)(F)F)c2)cc1C#Cc1cnc2cccnn12 [Ponatinib] (300 nM) |  |  |  |  |  |  | normalised viability (HDQ-P1 [1]): 58.9%; normalised viability (CAL-85-1 [2]): 80.5%; normalised viability (CAL-148 [3]): 87.7%; normalised viability (DU-4475 [4]): 73.8%; normalised viability (CAL-51 [5]): 73.9%; normalised viability (MDA-MB-453 [6]): 54.3%
2 | C=C(c1ccc(C(=O)O)cc1)c1cc2c(cc1C)C(C)(C)CCC2(C)C [Bexarotene] (3000 nM) |  |  |  |  |  |  | normalised viability (HDQ-P1 [1]): 77.3%; normalised viability (CAL-85-1 [2]): 99.2%; normalised viability (CAL-148 [3]): 79.8%; normalised viability (DU-4475 [4]): 97%; normalised viability (CAL-51 [5]): 92.8%; normalised viability (MDA-MB-453 [6]): 84.2%
3 | NC(=O)Nc1cc(-c2cccc(F)c2)sc1C(=O)N[C@H]1CCCNC1 [AZD 7762] (100 nM) |  |  |  |  |  |  | normalised viability (HDQ-P1 [7]): 96.5%; normalised viability (CAL-85-1 [8]): 89.1%; normalised viability (CAL-148 [9]): 102%; normalised viability (DU-4475 [10]): 97.4%; normalised viability (CAL-51 [11]): 101%; normalised viability (MDA-MB-453 [12]): 88.5%
4 | C#Cc1cccc(Nc2ncnc3cc(OCCOC)c(OCCOC)cc23)c1 [Erlotinib] (3000 nM) |  |  |  |  |  |  | normalised viability (HDQ-P1 [1]): 75.4%; normalised viability (CAL-85-1 [2]): 49.8%; normalised viability (CAL-148 [3]): 66.9%; normalised viability (DU-4475 [4]): 108%; normalised viability (CAL-51 [5]): 95.9%; normalised viability (MDA-MB-453 [6]): 73.5%
5 | CCC1(c2ccc(N)cc2)CCC(=O)NC1=O (stereo not given) [Aminoglutethimide] (300 nM) | 72.9% | 92.9% | 104% | 93.4% | 84.8% | 89.6% | 
6 | CC(=O)Nc1ccc(C(=O)Nc2ccccc2N)cc1 [CI-994] (100 nM) |  |  |  |  |  |  | normalised viability (HDQ-P1 [7]): 119%; normalised viability (CAL-85-1 [8]): 89.5%; normalised viability (CAL-148 [9]): 91.2%; normalised viability (DU-4475 [10]): 98.7%; normalised viability (CAL-51 [11]): 98.1%; normalised viability (MDA-MB-453 [12]): 92%
7 | C#Cc1cccc(Nc2ncnc3cc(OCCOC)c(OCCOC)cc23)c1 [Erlotinib] (300 nM) | 63.8% | 73.3% | 86.1% | 114% | 96.4% | 86.1% | 
8 | NC(=O)Nc1cc(-c2cccc(F)c2)sc1C(=O)N[C@H]1CCCNC1 [AZD 7762] (30 nM) | 93.9% | 99.5% | 93.7% | 99.8% | 103% | 110% | 
9 | CC(C)Cn1cnc2c(N)nc3ccccc3c21 [Imiquimod] (1000 nM) |  |  |  |  |  |  | normalised viability (HDQ-P1 [7]): 86.1%; normalised viability (CAL-85-1 [8]): 92.8%; normalised viability (CAL-148 [9]): 106%; normalised viability (DU-4475 [10]): 93.3%; normalised viability (CAL-51 [11]): 99.8%; normalised viability (MDA-MB-453 [12]): 104%
10 | C[C@]12CC[C@@H]3c4ccc(O)cc4C[C@@H](CCCCCCCCC[S+]([O-])CCCC(F)(F)C(F)(F)F)[C@H]3[C@@H]1CC[C@@H]2O (stereo not given in full) [Fulvestrant] (300 nM) | 74.7% | 87.8% | 102% | 92.7% | 111% | 98.8% | 
11 | CCC1(c2ccc(N)cc2)CCC(=O)NC1=O (stereo not given) [Aminoglutethimide] (3000 nM) |  |  |  |  |  |  | normalised viability (HDQ-P1 [1]): 92.5%; normalised viability (CAL-85-1 [2]): 90.1%; normalised viability (CAL-148 [3]): 105%; normalised viability (DU-4475 [4]): 103%; normalised viability (CAL-51 [5]): 85.1%; normalised viability (MDA-MB-453 [6]): 82.6%
12 | CN(C)/N=N/c1[nH]cnc1C(N)=O [Dacarbazine] (300 nM) | 88.8% | 93.4% | 84.3% | 92.7% | 89.4% | 89% | 
13 | CN[C@@H]1C[C@H]2O[C@@](C)([C@@H]1OC)n1c3ccccc3c3c4c(c5c6ccccc6n2c5c31)C(=O)N[C@H]4O [UCN-01] (300 nM) | 26.2% | 41.8% | 87% | 37.6% | 31.2% | 38.4% | 
14 | CCC1=C[C@@H]2CN(C1)Cc1c([nH]c3ccccc13)[C@@](C(=O)OC)(c1cc3c(cc1OC)N(C)[C@H]1[C@@](O)(C(=O)OC)[C@H](OC(C)=O)[C@]4(CC)C=CCN5CC[C@]31[C@@H]54)C2 [Vinorelbine] (3000 nM) |  |  |  |  |  |  | normalised viability (HDQ-P1 [1]): 32.7%; normalised viability (CAL-85-1 [2]): 37.1%; normalised viability (CAL-148 [3]): 20.1%; normalised viability (DU-4475 [4]): 15.8%; normalised viability (CAL-51 [5]): 16.6%; normalised viability (MDA-MB-453 [6]): 39.8%
15 | CCN(CCCOc1ccc2c(Nc3cc(CC(=O)Nc4cccc(F)c4)[nH]n3)ncnc2c1)CCOP(=O)(O)O [Barasertib] (100 nM) |  |  |  |  |  |  | normalised viability (HDQ-P1 [7]): 76.5%; normalised viability (CAL-85-1 [8]): 77.2%; normalised viability (CAL-148 [9]): 23.7%; normalised viability (DU-4475 [10]): 77%; normalised viability (CAL-51 [11]): 60.6%; normalised viability (MDA-MB-453 [12]): 55.3%
16 | CNCc1ccc(-c2[nH]c3cc(F)cc4c3c2CCNC4=O)cc1 [Rucaparib] (300 nM) | 43.2% | 92.6% | 91.7% | 77.4% | 110% | 108% | 
17 | COc1cc2nccc(Oc3ccc(NC(=O)C4(C(=O)Nc5ccc(F)cc5)CC4)cc3)c2cc1OC [Cabozantinib] (30 nM) | 62.5% | 85.5% | 111% | 96.1% | 102% | 96.5% | 
18 | C=C(c1ccc(C(=O)O)cc1)c1cc2c(cc1C)C(C)(C)CCC2(C)C [Bexarotene] (300 nM) | 54.5% | 89.8% | 92.8% | 116% | 92.8% | 71.4% | 
19 | Cc1ccc(C(=O)Nc2ccc(CN3CCN(C)CC3)c(C(F)(F)F)c2)cc1C#Cc1cnc2cccnn12 [Ponatinib] (30 nM) | 97% | 90% | 106% | 81.4% | 86.3% | 85.3% | 
20 | Cn1c(Nc2ccc(C(F)(F)F)cc2)nc2cc(Oc3ccnc(-c4ncc(C(F)(F)F)[nH]4)c3)ccc21 [RAF265] (30 nM) | 51.7% | 88.9% | 86.2% | 111% | 89.8% | 88.3% | 
